Data taken from patent publication US20260306641A1, “HELICASE DEGRADERS” (priority 2023, published 2026).

How the values were obtained:
HaCaT cells [1] = test: BrdU labeling of DNA replication in synchronized HaCaT cells; type: cell-based, human; conditions: for DNA replication (BrdU), early G1 treatment: added at time 0, 15 μM; for DNA replication (BrdU), early S-phase treatment: treated at 18 hrs, analyzed 3 hrs later, CA1/novobiocin 15 μM, etoposide 5 μM
Protocol: Verification of synchronization and determination of drug effects was performed by measuring the incorporation of bromo-deoxyuridine (BrdU) into replicating foci within nuclei. At times indicated, cells were pulse-labeled with 15 μM BrdU for 30 min, fixed with 4% paraformaldehyde, and analyzed by standard immunofluorescent techniques(40,51) with an anti-BrdU monoclonal antibody (Roche, clone no. BMC9318, RRID:AB_2313622). The average counts of three fields of 100 or more cells were used to determine the percentages of BrdU-labeled nuclei, +/−1 s.d.

HaCaT cells [2] = test: CellTiter-Glo viability, HaCaT cells; type: cell-based, human; conditions: 72 hr
Protocol: Human keratinocytes (HaCaT; RRID:CVCL_0038), 143B cells (osteosarcoma; RRID:CVCL_2270), and HEK-293T (RRID:CVCL_0063) cells were maintained in Dulbecco's Modified Eagle's Medium (DMEM) supplemented with 10% fetal bovine serum (FBS; Peak Serum, PS-FB-2). Human Psn1 (pancreatic ductal adenocarcinoma; RRID:CVCL_1644) and H460 (non-small cell lung carcinoma; RRID:CVCL_0459) cells were cultured in RPMI-1640 medium supplemented with 10% FBS. HaCaT cells were synchronized in Go using serum starvation for 48 hr and released into the cell cycle by addition of DMEM with 10% FBS (51). Novobiocin (cat #46531) and Courmermycin-A1 (cat #C9270) were obtained from Sigma. Etoposide (cat #S1225) and AT7519 (cat #S1524) were obtained from SelleckChem. All stock solutions of inhibitors were stored at −20° C. as 10 mM suspensions in DMSO.
Cell viability determinations were performed using CellTiter-Glo Assays (Promega; cat #G7572). Cells were seeded in 96-well plates at a density of ~3×10^3 cells/well and treated with drugs for 72 hr, after which the cells were processed for viability using CellTiter-Glo reagent according to the instructions of the manufacturer. Each drug concentration test was performed using four replicates, and results averaged and plotted on graphs, +/−1 s.d.

HSP90 = conditions: cited from earlier work
[3] = test system: solid tumor cell lines (NCI-60 set); conditions: cited from earlier work
[4] = test system: MCM/CMG and replisome proteins in HaCaT cells; test: Immunoblots of chromatin-bound or total proteins, synchronized HaCaT cells; type: cell-based, human
human Topoisomerase-II = test: Topoisomerase II decatenation assay; type: biochemical
Protocol: The Topoisomerase II drug screening kit (kDNA-based; TopoGEN, TG1009-1A) was used to assess in vitro Topo II enzyme activity according to the manufacture protocol. Assays were performed in […] reactions with 4 μL of 5× Assay Buffer (0.25 M Tris-HCl (pH 8), 10 mM ATP, 0.75 M NaCl, 50 mM MgCl2, 2.5 mM Dithiothreitol, 150 mg/ml BSA), 1 mL kDNA ([…]), 1 mL DMSO solvent or compounds at indicated concentrations, 1 mL Topoisomerase II (2 Units), 13 mL water. Assays were incubated at 37° C. for 30 min and stopped by addition of 2 mL 10% SDS and Proteinase K (50 mg/ml). After incubating at 37° C. for 15 min, samples were mixed with 1/10 volume of loading buffer and resolved on a 1% agarose gel.

[5] = treated at 18 hr (early S-phase)

**Q.** Which “DNA replication (BrdU), early G1 treatment” value (HaCaT cells [1]) does the source give for `CO[C@@H]1[C@@H](OC(N)=O)[C@@H](O)[C@H](Oc2ccc3c(O)c(NC(=O)c4ccc(O)c(CC=C(C)C)c4)c(=O)oc3c2C)OC1(C)C` [novobiocin] here?
**A.** little effect

**Q.** And the “DNA replication (BrdU), early S-phase treatment” value (HaCaT cells [1])?
**A.** did not

**Q.** What about the “effect on HaCaT viability” value (HaCaT cells [2]) of the same compound?
**A.** little effect on viability

**Q.** What about the “doses required to inhibit HSP90” value (HSP90) of the same compound?
**A.** 700 to 1000 µM

**Q.** And the “growth suppression of solid tumor cell lines” value [3]?
**A.** largely insensitive

**Q.** And the “increase in MCM loading at 12 hrs” value ([4]; treated at 6 hrs (middle G1))?
**A.** not by novobiocin

**Q.** What about the “human Topoisomerase-II inhibition” value (human Topoisomerase-II; 1 mM) of the same compound?
**A.** no effect at 1 mM

**Q.** Which “DNA replication (BrdU), early G1 treatment” value (HaCaT cells [1]) does the source give for `CO[C@@H]1[C@@H](OC(=O)c2ccc(C)[nH]2)[C@@H](O)[C@H](Oc2ccc3c(O)c(NC(=O)c4c[nH]c(C(=O)Nc5c(O)c6ccc(O[C@@H]7OC(C)(C)[C@H](OC)[C@@H](OC(=O)c8ccc(C)[nH]8)[C@H]7O)c(C)c6oc5=O)c4C)c(=O)oc3c2C)OC1(C)C` [CA1] here?
**A.** inhibits DNA replication

**Q.** What about the “DNA replication (BrdU), late-G1 treatment” value (HaCaT cells [1]; treated at 12 hrs, assessed at 18 hrs) of the same compound?
**A.** fail to undergo DNA replication

**Q.** And the “DNA replication (BrdU), early S-phase treatment” value (HaCaT cells [1])?
**A.** effectively suppressed DNA replication

**Q.** What about the IC50 (HaCaT cells [2]; Homo sapiens, HaCaT) of the same compound?
**A.** ~15 µM

**Q.** And the “doses required to inhibit HSP90” value (HSP90)?
**A.** 700 to 1000 µM

**Q.** And the “growth suppression of solid tumor cell lines” value [3]?
**A.** sensitive to similar low micromolar concentrations

**Q.** What about the “Ctf4 and Mcm10 on chromatin” value ([4]; S-phase cells) of the same compound?
**A.** reduced on chromatin

**Q.** And the “DNA polymerases-a, -d and -e on chromatin” value ([4]; S-phase cells)?
**A.** caused a loss of DNA polymerases-a, -d, and -e from chromatin

**Q.** And the RPA on chromatin ([4]; S-phase cells)?
**A.** reduced on chromatin

**Q.** What about the “GINS and Cdc45 loading onto chromatin” value ([4]; early-G1 treatment) of the same compound?
**A.** blocked

**Q.** What about the Orc2 chromatin binding ([4]; early-G1 treatment) of the same compound?
**A.** not affected

**Q.** What about the “MCM loading onto chromatin” value ([4]; early-G1 treatment, assessed 18 hrs) of the same compound?
**A.** significantly inhibited

**Q.** What about the Cdc45 recruitment ([4]; late-G1 treatment (12 hrs)) of the same compound?
**A.** not appreciably affected

**Q.** And the Cdt1 dynamics ([4]; late-G1 treatment (12 hrs))?
**A.** does not affect Cdt1 dynamics

**Q.** What about the “GINS recruitment to DNA-loaded MCM hexamers” value ([4]; late-G1 treatment (12 hrs)) of the same compound?
**A.** inhibits GINS recruitment to DNA-loaded MCM hexamers

**Q.** And the “remainder of MCM loading” value ([4]; late-G1 treatment (12 hrs))?
**A.** only a small effect, if any

**Q.** And the “Cdc6 chromatin association, polyclonal antibody” value ([4]; middle G1 exposure)?
**A.** not affected in chromatin association

**Q.** What about the “Cdc6 form on chromatin, monoclonal antibody” value ([4]; middle G1 exposure) of the same compound?
**A.** sensitive to CA1

**Q.** What about the “Orc2 and Orc4 affinity for chromatin” value ([4]; middle G1 exposure) of the same compound?
**A.** not affected

**Q.** What about the “Cdt1 loading on chromatin” value ([4]; treated at 6 hrs (middle G1)) of the same compound?
**A.** blocks this Cdt1 loading

**Q.** What about the “MCMs already loaded on chromatin” value ([4]; treated at 6 hrs (middle G1)) of the same compound?
**A.** does not affect MCMs already loaded

**Q.** And the “increase in MCM loading at 12 hrs” value ([4]; treated at 6 hrs (middle G1))?
**A.** inhibited by CA1

**Q.** And the “total Cdt1” value ([4]; treated at 6 hrs (middle G1))?
**A.** promotes loss of total Cdt1

**Q.** And the “GINS and Cdc45 chromatin association” value [4, 5]?
**A.** notably suppressed

**Q.** And the “total protein levels of Psf3 and Cdc45” value [4, 5]?
**A.** slightly affected

**Q.** And the “CA1 concentration required for human Topo-II inhibition relative to that required to block CMG activity” value (human Topoisomerase-II; decatenation assay in vitro)?
**A.** ~ 10 fold

**Q.** And the “human Topoisomerase-II inhibition” value (human Topoisomerase-II; low concentrations used in cell-based experiments)?
**A.** no inhibitory effect on human Topoisomerase-II at low concentrations
